Source: patent US12065445B2, “CDK2 inhibitors and methods of using the same” (Cedilla Therapeutics, Inc., priority 2021, dated 2024)

The molecules below were run on Kuramochi cells labeled with mApple-H2B (assay: IncuCyte Cell Proliferation Assay). Conditions: 72 h.
Assay type: cell-based
Method: IncuCyte® assay was used to measure the effect of disclosed compounds on cell proliferation. Fluorescent microscopy images of cells were taken immediately after compound treatment and 72 hours later. Image analysis software was used to obtain cell counts as a function of compound concentration. Kuramochi cells labeled with mApple-H2B were seeded on 384-well assay-ready plates. Plates were placed in an IncuCyte® (Sartorius) and scanned at 0 and 72 hours. IncuCyte® software was used to count the number of fluorescent nuclei in each well. The fold change in cell count from 0 to 72 hours in wells treated with increasing compounds concentrations (10 pts, ½ log dilution, 20 μM top concentration) was normalized to DMSO control wells. The normalized cell counts were fit with dose response curves and a […] was calculated.

Compound	IC50
C[C@@H](OCC1CCCCC1)[C@H](NC(=O)[C@@H]1CN(C(=O)c2cnn(Cc3ccccc3)c2)CC12CN(C(=O)[C@H]1CC1(C)C)C2)C(=O)N1CC[C@H]1CN [I-310]	5 to 20 µM
C[C@@H](OCC1CCOCC1)[C@@H](COC1CCC(F)(F)CC1)NC(=O)[C@@H]1CN(C(=O)c2cncs2)CC12CN(C(=O)[C@H]1CC1(C)C)C2 [I-312]	0.5 to 5 µM
C[C@@H](OCC1CCC(F)(F)CC1)[C@H](NC(=O)[C@@H]1CN(C(=O)c2cncs2)CC12CN(C(=O)[C@H]1CC1(C)C)C2)C(C)(C)O [I-313]	0.5 to 5 µM
C[C@@H](OCC1CCC(F)(F)CC1)[C@@H](COC1CCOCC1)NC(=O)[C@@H]1CN(C(=O)c2cncs2)CC12CN(C(=O)[C@H]1CC1(C)C)C2 [I-314]	≤ 0.5 µM
C[C@@H](OCC1CCC(F)(F)CC1)[C@@H](COC1CCC(F)(F)CC1)NC(=O)[C@@H]1CN(C(=O)c2cncs2)CC12CN(C(=O)[C@H]1CC1(C)C)C2 [I-315]	0.5 to 5 µM
CC(O[C@H](C)[C@@H](COC1CCC(F)(F)CC1)NC(=O)[C@@H]1CN(C(=O)c2cncs2)CC12CN(C(=O)[C@H]1CC1(F)F)C2)C1CCC(F)(F)CC1 (some centres unmarked) [I-316]	> 20 µM
COC[C@H]1CCCN(C(=O)[C@@H](NC(=O)[C@@H]2CN(C(=O)c3cncs3)CC23CN(C(=O)[C@H]2CC2(C)C)C3)[C@@H](C)OCc2ccc(OC(F)(F)F)cc2)C1 [I-320]	0.5 to 5 µM
C[C@@H](OCC1CCOCC1)[C@H](NC(=O)[C@@H]1CN(C(=O)c2cncs2)CC12CN(C(=O)[C@H]1CC1(C)C)C2)C(=O)N1CCC[C@H](COC(F)(F)F)C1 [I-327]	5 to 20 µM
C[C@@H](OCC1CCCCC1)[C@@H](COC1CCNCC1)NC(=O)[C@@H]1CN(C(=O)c2cncs2)CC12CN(C(=O)[C@H]1CC1(C)C)C2 [I-329]	0.5 to 5 µM
C[C@@H](OCC1CCCCC1)[C@@H](COC1CCOCC1)NC(=O)[C@@H]1CN(C(=O)c2cncs2)CC12CN(C(=O)[C@H]1CC1(C)C)C2 [I-331]	≤ 0.5 µM
C[C@@H](OCC1CCCCC1)[C@@H](COC1CCCNC1)NC(=O)[C@@H]1CN(C(=O)c2cncs2)CC12CN(C(=O)[C@H]1CC1(C)C)C2 (some centres unmarked) [I-332]	5 to 20 µM
C[C@@H](OCC1CCOCC1)[C@@H](COC1CCC(F)(F)CC1)NC(=O)[C@@H]1CN(C(=O)c2cncs2)CC12CN(C(=O)C(C)(C)C1CC1)C2 [I-333, (S)-2-(2-cyclopropyl-2-methylpropanoyl)-N-((2R,3R)-1-((4,4-difluorocyclohexyl)oxy)-3-((tetrahydro-2H-pyran-4-yl)methoxy)butan-2-yl)-6-(thiazole-5-carbonyl)-2,6-diazaspiro[3.4]octane-8-carboxamide]	5 to 20 µM
C[C@@H](OCC12CCC(CC1)OC2)[C@H](NC(=O)[C@@H]1CN(C(=O)c2cncs2)CC12CN(C(=O)C(C)(C)C1CC1)C2)C(C)(C)O [I-334]	> 20 µM
C[C@@H](OCC1CCC(F)(F)CC1)[C@H](NC(=O)[C@@H]1CN(C(=O)c2cncs2)CC12CN(C(=O)[C@H]1CC1(C)C)C2)C(=O)N1CCC2(CC1)COC2 [I-335]	0.5 to 5 µM
C[C@@H](OCC1CCC(F)(F)CC1)[C@H](NC(=O)[C@@H]1CN(C(=O)c2cncs2)CC12CN(C(=O)C(C)(C)C1CC1)C2)C(=O)N1CCC(O)CC1 [I-337]	0.5 to 5 µM
CNC(=O)C(NC(=O)[C@@H]1CN(C(=O)c2cncs2)CC12CN(C(=O)C(C)(C)C1CC1)C2)c1cccc(C2CCOCC2)n1 (some centres unmarked) [I-338]	> 20 µM
CC(C)(O)C(NC(=O)[C@@H]1CN(C(=O)c2cncs2)CC12CN(C(=O)C(C)(C)C1CC1)C2)c1cccc(C2CCOCC2)n1 (some centres unmarked) [I-339]	> 20 µM
CN(C)C(=O)C(NC(=O)[C@@H]1CN(C(=O)c2cncs2)CC12CN(C(=O)C(C)(C)C1CC1)C2)c1cccc(C2CCOCC2)n1 (some centres unmarked) [I-340]	> 20 µM
Cc1nc(C)c(C(=O)N2C[C@@H](C(=O)N[C@H](C(=O)N3CCC4(CC3)COC4)[C@@H](C)OCC34CCC(CC3)OC4)C3(C2)CN(C(=O)[C@H]2CC2(C)C)C3)s1 [I-343]	> 20 µM
CNC(=O)[C@@H](NC(=O)[C@@H]1CN(C(=O)c2cncs2)CC12CN(CC(C)(C)C)C2)[C@@H](C)OCC12CCC(CC1)OC2 [I-347]	> 20 µM
